Test results taken from patent publication EP4745127A1, “PYRIMIDINAMINE NUAK INHIBITOR AS WELL AS PREPARATION METHOD THEREFOR AND USE THEREOF” (Technoderma Medicines Inc., priority 2023, dated 2025).

Tests used:
NUAK2 = biological target: T1, NUAK2 (Homo sapiens, UniProt Q9H093); assay: Kinase activity inhibition assay, P81 filter paper binding hot-spot technique (33P-ATP, CHKtide substrate); format: biochemical; conditions: final concentration of NUAK2 50 nM; 20 µM CHKtide substrate; incubated 2 hours at room temperature; read-out: IC50 (nM) of Test Compounds of the Present Application against NUAK2
T1 sequence (Q9H093 1-628): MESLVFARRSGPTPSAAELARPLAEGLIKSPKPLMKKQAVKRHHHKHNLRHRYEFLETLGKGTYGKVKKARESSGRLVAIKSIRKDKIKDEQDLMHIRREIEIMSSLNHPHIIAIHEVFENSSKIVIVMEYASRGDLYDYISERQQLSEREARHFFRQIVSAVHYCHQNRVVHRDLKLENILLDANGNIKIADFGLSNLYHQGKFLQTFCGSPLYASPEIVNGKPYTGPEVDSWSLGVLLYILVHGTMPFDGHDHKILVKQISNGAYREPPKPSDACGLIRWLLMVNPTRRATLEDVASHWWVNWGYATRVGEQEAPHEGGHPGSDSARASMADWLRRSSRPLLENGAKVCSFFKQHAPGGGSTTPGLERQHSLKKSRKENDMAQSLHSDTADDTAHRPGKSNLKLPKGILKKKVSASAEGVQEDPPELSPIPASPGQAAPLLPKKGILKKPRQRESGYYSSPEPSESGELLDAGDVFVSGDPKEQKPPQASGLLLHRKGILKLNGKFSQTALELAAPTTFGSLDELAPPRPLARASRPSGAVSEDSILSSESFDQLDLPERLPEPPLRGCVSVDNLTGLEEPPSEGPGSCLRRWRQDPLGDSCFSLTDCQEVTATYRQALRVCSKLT
Method: (§1) The inhibitory activity of the pyrimidinamine small molecules involved in the present application against NUAK1 and NUAK2 kinases was determined using a kinase activity assay based on the P81 filter paper binding hot-spot technique (Nat Biotechnol. 2011, 29:1039). A brief description is as follows:
(§2) The assay buffer system contained 20 mM Hepes (pH 7.5), 10 mM MgCl2, 1 mM EGTA, 0.01% Brij35 (L23 polyoxyethylene lauryl ether), 0.02 mg/mL BSA (bovine serum albumin), 0.1 mM Na3VO4, 2 mM DTT, and 1% DMSO.
(§3) • 1. A 20 µM substrate solution was prepared with freshly prepared test buffer and CHKtide peptide fragments (Sanchez Y. Science. 1997, 277: 1497-1501) were used as a substrate. • 2. Kinases were added and mixed gently (a final concentration of NUAK1 was 10 nM; and a final concentration of NUAK2 was 50 nM). • 3. Test compounds dissolved in 100% DMSO were each added to the above kinase reaction mixture solution via Acoustic Droplet Ejection (Echo550; nanoliter) and the mixture was incubated for 5 minutes at room temperature. • 4. ^33P-labeled ATP (a ratio of unlabeled ATP to labeled ATP was 25:1 or 2.5:1) was added. • 5. The mixture was incubated for 2 hours at room temperature. • 6. Kinase activity was tested using the P81 filter paper combined with hotspot technology.
(§4) The IC50 values of the test compounds against NUAK1/NUAK2 were calculated according to the above test. For specific results, see Table 1.
(§5) The IC50 values were calculated by using a formula derived from sigmoidal dose-response curve (variable slope):
(§6) Y = Bottom + (Top-Bottom)/(1+10^((LogEC50-X)*Slope, where X is the logarithm of compound concentration, Y is the response (inhibition rate of kinase activity), and Y rises from bottom to top along the sigmoidal curve as the concentration increases. Table 1: IC50 (nM) of Test Compounds of the Present Application against NUAK1/NUAK2

NUAK1 = biological target: T2, NUAK1 (Homo sapiens, UniProt O60285); assay: as above; format: biochemical; conditions: final concentration of NUAK1 10 nM; 20 µM CHKtide substrate; incubated 2 hours at room temperature; read-out: IC50 (nM) of Test Compounds of the Present Application against NUAK1
T2 sequence (O60285 1-661): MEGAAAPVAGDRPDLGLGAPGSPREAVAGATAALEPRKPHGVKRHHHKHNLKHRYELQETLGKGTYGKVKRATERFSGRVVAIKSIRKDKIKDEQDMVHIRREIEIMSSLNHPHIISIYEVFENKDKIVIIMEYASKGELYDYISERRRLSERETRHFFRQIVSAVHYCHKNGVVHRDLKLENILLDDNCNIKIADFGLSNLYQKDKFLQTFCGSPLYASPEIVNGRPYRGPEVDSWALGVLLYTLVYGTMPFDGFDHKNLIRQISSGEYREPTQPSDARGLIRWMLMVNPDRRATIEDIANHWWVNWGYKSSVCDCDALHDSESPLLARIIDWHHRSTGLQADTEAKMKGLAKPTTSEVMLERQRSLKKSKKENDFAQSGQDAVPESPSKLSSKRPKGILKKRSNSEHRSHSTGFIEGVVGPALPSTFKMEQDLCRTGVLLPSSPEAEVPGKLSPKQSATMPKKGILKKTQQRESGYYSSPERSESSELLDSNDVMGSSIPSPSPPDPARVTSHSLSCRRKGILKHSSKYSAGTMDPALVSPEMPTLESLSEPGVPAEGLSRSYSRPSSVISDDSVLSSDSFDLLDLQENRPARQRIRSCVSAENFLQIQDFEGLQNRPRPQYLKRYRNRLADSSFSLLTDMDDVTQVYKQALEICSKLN
Method: as §1, §2, §3, §4, §5, §6

Row | IC50 (NUAK2) [nM] | IC50 (NUAK1) [nM] | Structure (SMILES)
1 | 311 | 21 | CN1CCN(c2ccc(Nc3ncc(Cl)c(Oc4cccc(NC(=O)C5CC5(F)F)c4)n3)cc2)CC1 (stereo not shown) [TDM-181120]
2 | 352 | 161 | O=C(Nc1cccc(Oc2nc(Nc3cnn(C4CCNCC4)c3)ncc2Cl)c1)C1CC1(F)F (stereo not shown) [TDM-181127, N-(3-((5-Chloro-2-((1-(piperidin-4-yl)-1H-pyrazol-4-yl)amino)pyrimidin-4-yl)oxy)phenyl)-2,2-difluorocyclopropane-1-carboxamide]
3 | 37 | 24 | COc1cc(N2CCN(C)CC2)ccc1Nc1ncc(Cl)c(Oc2ccccc2NC(=O)C2CC2)n1 [TDM-181132, N-(2-((5-Chloro-2-((2-methoxy-4-(4-methylpiperazin-1-yl)phenyl)amino)pyrimidin-4-yl)oxy)phenyl)cyclopropanecarboxamide]
4 | 13 | 4 | COc1cc(N2CCN(C)CC2)ccc1Nc1ncc(Cl)c(Oc2ccccc2NC(=O)[C@@H]2CC2(F)F)n1 [TDM-181160, (S)-N-(2-((5-Chloro-2-((2-methoxy-4-(4-methylpiperazin-1-yl)phenyl)amino)pyrimidin-4-yl)oxy)phenyl)-2,2-difluorocyclopropane-1-carboxamide]

Row | Structure (SMILES) | IC50 (NUAK2) [nM] | IC50 (NUAK1) [nM]
5 | CN1CCN(c2ccc(Nc3ncc(Cl)c(N(C)c4cccc(NC(=O)[C@@H]5CC5(F)F)c4)n3)cc2)CC1 [TDM-181131, (S)-N-(3-((5-Chloro-2-((4-(4-methylpiperazin-1-yl)phenyl)amino)pyrimidin-4-yl)(methyl)amino)phenyl)-2,2-difluorocyclopropane-1-carboxamide] | 635 | 81
